Measurements: ChEMBL document CHEMBL1806407, “Site-directed mutagenesis provides insights into the selective binding of trityl derivatives to Plasmodium falciparum dUTPase” (Eur J Med Chem, 2011)

Assays:
[1] = Inhibition of recombinant wild type Plasmodium falciparum dUTPase expressed in Escherichia coli BL21(DE3) cells using dUTP as substrate by spectrophotometric analysis
[2] = target: dUTP pyrophosphatase (Plasmodium falciparum 3D7, UniProt Q8II92, F46A); assay: Inhibition of recombinant Plasmodium falciparum dUTPase F46A mutant expressed in Escherichia coli BL21(DE3) cells using dUTP as substrate by spectrophotometric analysis
Sequence of dUTP pyrophosphatase (Plasmodium falciparum 3D7, UniProt Q8II92, F46A) (Q8II92 whole entry F46A): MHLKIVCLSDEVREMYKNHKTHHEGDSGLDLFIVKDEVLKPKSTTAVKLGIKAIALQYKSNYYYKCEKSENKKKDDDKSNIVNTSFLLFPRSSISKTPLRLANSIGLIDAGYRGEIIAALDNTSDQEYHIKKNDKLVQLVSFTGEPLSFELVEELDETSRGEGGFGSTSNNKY

[3] = target: dUTP pyrophosphatase (Plasmodium falciparum 3D7, UniProt Q8II92, K96A); assay: Inhibition of recombinant Plasmodium falciparum dUTPase K96A mutant expressed in Escherichia coli BL21(DE3) cells using dUTP as substrate by spectrophotometric analysis
Sequence of dUTP pyrophosphatase (Plasmodium falciparum 3D7, UniProt Q8II92, K96A) (Q8II92 whole entry K96A): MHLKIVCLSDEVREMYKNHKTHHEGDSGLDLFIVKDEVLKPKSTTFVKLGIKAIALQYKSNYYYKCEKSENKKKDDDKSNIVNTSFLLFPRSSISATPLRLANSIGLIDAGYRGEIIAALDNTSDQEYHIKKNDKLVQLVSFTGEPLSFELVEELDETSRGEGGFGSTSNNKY

[4] = target: dUTP pyrophosphatase (Plasmodium falciparum 3D7, UniProt Q8II92, I117A); assay: Inhibition of recombinant Plasmodium falciparum dUTPase I117A mutant expressed in Escherichia coli BL21(DE3) cells using dUTP as substrate by spectrophotometric analysis
Sequence of dUTP pyrophosphatase (Plasmodium falciparum 3D7, UniProt Q8II92, I117A) (Q8II92 whole entry I117A): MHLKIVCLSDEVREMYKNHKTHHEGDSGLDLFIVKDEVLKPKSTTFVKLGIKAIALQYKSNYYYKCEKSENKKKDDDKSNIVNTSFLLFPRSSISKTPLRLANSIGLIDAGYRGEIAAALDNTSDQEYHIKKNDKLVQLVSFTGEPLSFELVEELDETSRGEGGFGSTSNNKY

[5] = Selectivity index, ratio Ki for recombinant wild type Plasmodium falciparum dUTPase expressed in Escherichia coli BL21(DE3) cells to Ki for human dUTPase
[6] = Selectivity index, ratio of Ki for recombinant Plasmodium falciparum dUTPase F46A mutant expressed in Escherichia coli BL21(DE3) cells to Ki for human dUTPase
[7] = Selectivity index, ratio of Ki for recombinant Plasmodium falciparum dUTPase K96A mutant expressed in Escherichia coli BL21(DE3) cells to Ki for human dUTPase
[8] = Selectivity index, ratio of Ki for recombinant Plasmodium falciparum dUTPase I117A mutant expressed in Escherichia coli BL21(DE3) cells to Ki for human dUTPase
[9] = system: Plasmodium falciparum; assay: Antimalarial activity against blood stage Plasmodium falciparum infected in human red blood cells […] by propidium iodide staining based microscopic analysis; format: functional, organism-based
[10] = target: T1, Deoxyuridine 5'-triphosphate nucleotidohydrolase, mitochondrial (Homo sapiens, UniProt P33316); assay: Inhibition of human dUTPase using dUTP as substrate by spectrophotometric analysis
T1 sequence (P33316 whole entry): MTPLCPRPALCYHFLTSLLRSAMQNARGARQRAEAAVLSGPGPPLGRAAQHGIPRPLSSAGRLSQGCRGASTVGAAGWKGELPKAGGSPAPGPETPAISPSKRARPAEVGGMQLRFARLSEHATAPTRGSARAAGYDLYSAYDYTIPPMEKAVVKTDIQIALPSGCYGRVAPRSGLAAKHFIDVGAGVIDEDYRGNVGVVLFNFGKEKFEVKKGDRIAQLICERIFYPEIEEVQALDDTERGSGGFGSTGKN

SMILES | Ki [1] [µM] | Ki [2] [µM] | Ki [3] [µM] | Ki [4] [µM] | Ratio Ki [5] | Ratio Ki [6] | Ratio Ki [7] | Ratio Ki [8] | IC50 [9] [µM] | Ki [10] [µM]
O=c1ccn(CCCNC(c2ccccc2)(c2ccccc2)c2ccccc2)c(=O)[nH]1 | 0.2 | 28 | 0.04 | 0.6 | 7 | 0.04 | 35 | 2.4 |  | 
O=c1ccn([C@H]2C[C@H](O)[C@@H](CNC(c3ccccc3)(c3ccccc3)c3ccccc3)O2)c(=O)[nH]1 | 0.24 | 20 | 0.11 | 1.3 | 192 | 2.3 | 418 | 35 |  | 
O=c1ccn(C/C=C/COC(c2ccccc2)(c2ccccc2)c2ccccc2)c(=O)[nH]1 | 0.6 | 6 | 0.09 | 0.8 | > 1670 | > 167 | > 11100 | > 1250 |  | 
O=c1ccn(CCC(CO)CNC(c2ccccc2)(c2ccccc2)c2ccccc2)c(=O)[nH]1 (centres undefined) | 0.2 | 29 | 0.04 | 0.27 | 28 | 0.19 | 142 | 21 |  | 
O=c1ccn([C@H]2C[C@H](F)[C@@H](COC(c3ccccc3)(c3ccccc3)c3ccccc3)O2)c(=O)[nH]1 | 5 | 225 | 4.8 | 406 | 91 | 2 | 95 | 1.1 |  | 
O=c1ccn([C@H]2C=C[C@@H](COC(c3ccccc3)(c3ccccc3)c3ccccc3)O2)c(=O)[nH]1 | 1.9 | 20.3 | 0.39 | 1.6 | 83 | 8 | 402 | 98 | > 11 | 157
O=c1ccn(COCCOC(c2ccccc2)(c2ccccc2)c2ccccc2)c(=O)[nH]1 | 0.7 | 13 |  | 8 | 24 | 1.3 |  | 2.1 |  | 
O=c1ccn(CCCCCCNC(c2ccccc2)(c2ccccc2)c2ccccc2)c(=O)[nH]1 | 1.8 | 35 | 0.15 | 4.4 | > 556 | > 29 | > 6670 | > 227 |  | 
CC(C)(C)[Si](OC[C@@H]1C=C[C@H](n2ccc(=O)[nH]c2=O)O1)(c1ccccc1)c1ccccc1 | 1.2 | 17 | 0.21 | 0.8 | > 833 | > 59 | > 2560 | > 1250 | 3 | > 1000
